Experimental data from patent publication US10864269B2, “Therapeutic combinations comprising anti-CD73 antibodies and uses thereof” (MedImmune Limited, priority 2014, dated 2020).

Assays:
[1] = test system: IFNγ; assay: Mixed leukocyte reaction, IFNγ supernatant levels; format: cell-based; settings: human mixed leukocyte reaction, 72 hours, 1 μM each agent
Experimental: (§1) The release of immune activating cytokines IFNγ and TNFα was evaluated in human mixed leukocyte cultures with anti-CD73 monoclonal antibody alone and in combination with an adenosine receptor inhibitor (A2ARi). The levels of IFNγ and TNFα in supernatants were detected by ELISA. Human peripheral blood lymphocytes were set up in a mixed leukocyte reaction for 72 hours and stimulated with anti-CD73 alone, A2AR inhibitor alone or both agents. Peripheral blood mononuclear cells from pairwise combinations of 8 donors were incubated for 72 hours in the presence of 1 μM anti-CD73 antibody MEDI9447 and 1 μM A2ARi SCH58261, either alone or in combination. After incubation, supernatant levels of Interferon gamma (IFNγ) and Tumor Necrosis Factor Alpha (TNFα) were measured using a Mesoscale ELISA plate. The levels of IFNγ and TNFα observed after incubation with each compound were plotted as duplicate fold-control values using levels from incubation with an isotype control antibody as a negative control.

[2] = test system: TNFα; assay: Mixed leukocyte reaction, TNFα supernatant levels; format: cell-based; settings: human mixed leukocyte reaction, 72 hours, 1 μM each agent
Experimental: as §1

[3] = test system: CT26 murine colon carcinoma; assay: CT26 syngeneic tumor model, MEDI9447 mIgG1 with anti-PD-1; format: in vivo, Balb/C mice
Experimental: Syngeneic tumors were established by subcutaneous (SC) injection of 0.1 ml of 5×10^6 CT26 cells/ml suspended in HBSS into the right flanks of 8- to 10-week-old animals.
Tumors were measured by caliper and the volumes of tumors (TV) were calculated using the following formula: TV=(L×W^2)/2 (1)
Mice were randomized into groups based on bodyweight. There were no animal substitutions. 60 female Balb/c mice were used in this study.
Animals were randomly assigned into 6 groups. Animals were administered MEDI9447(mIgG1). Test articles were administered by intraperitoneal (IP) injection twice weekly starting on Day 3.
CT26 murine colon carcinoma were implanted into syngeneic Balb/C mice and treated with anti-CD73 (MEDI9447 mIgG1; 10 mg/kg), anti-PD1 (0.5 mg/kg) or the combination (10 mg/kg anti-CD73 and 0.5 mg/kg anti-PD1). […] Tumor volumes from each group of animals were plotted for individual animals out to study day 40. No control group mice were tumor free by the end of the 40 day study period (See FIG. 6). […] None of the control group mice were tumor free by the end of the study. CT26 tumors were measured in mice treated with anti-CD73 (MEDI9447 mIgG1), anti-PD1 or the combination of anti-CD73 and anti-PD1. Mice were measured until study day 40, and humanely sacrificed once tumors reached 2000 mm^3. […] Median survival increased from 25 and 33 days (anti-CD73 and anti-PD1, respectively) compared to “undefined” at day 40 for the combination.

[4] = test system: CD4+CD25− T cell proliferation; assay: AMP-mediated suppression of CD4+CD25− T cell proliferation; format: cell-based; settings: primary human CD4+CD25− T cells, 100 or 200 μM AMP, 72 hours, CFSE
Experimental: In an assay for AMP-mediated T-cell suppression, primary human CD4^+ T cells depleted of CD25^+ cells were isolated from the content of leukocyte cones and used as effector cells; each cone was processed separately. Briefly, the content from a leukocyte cone was diluted in PBS, then layered over FICOLL-PAQUE® Plus (GE Healthcare, Chalfont St Giles, UK) and centrifuged at 400×g for 40 minutes with brakes turned off. Peripheral blood mononuclear cells (PBMC) were then isolated from the interface and washed with PBS by centrifugation at 200×g for 10 minutes. Supernatant was discarded and cells were suspended in PBS. Viable cells were determined, then pelleted at 350×g for 5 minutes and suspended in ROBOSEP buffer (Stem Cell, Grenoble, France) at a concentration of 5×10^7 per mL. […]
Isolated effector cells were labeled with CFSE probe (3 μM) using the CELLTRACE CFSE cell proliferation kit (Life Technologies, Paisley, UK) at a cell density of 1×10^6 cells per mL in PBS containing 0.1% BSA with an incubation period of 15 minutes at 37° C. […] Phen0203 hIgG1 was received as a ready-to-use formulation (Medlmmune, Gaithersburg, Md.) and was diluted in phosphate-buffered saline (PBS). R347 was received as a ready-to-use formulation (Medlmmune, Gaithersburg, Md.) and was diluted in PBS. […]

[5] = study day 40, anti-CD73 10 mg/kg, anti-PD1 0.5 mg/kg, ip 2x weekly, 4 doses

Molecule | IFNγ supernatant levels [1] | TNFα supernatant levels / secretion [2] | Median survival ([3]; CT26, followed until study day 40) | Survival [3, 5] | Tumor free mice [3, 5] | T cell proliferation in the presence of AMP [4]
MEDI9447 mIgG1: anti-CD73 antibody MEDI9447 in murine IgG1 format | capable of inducing | capable of inducing | 25 days | 10% | 10% | 
Nc1nc2c(cnn2CCc2ccccc2)c2nc(-c3ccco3)nn12 [SCH58261, reference compound] | capable of inducing | capable of inducing |  |  |  | increase of T-cell proliferation
Nc1ncnc2c1ncn2[C@@H]1O[C@H](COP(=O)(O)CP(=O)(O)O)[C@@H](O)[C@H]1O [APCP, adenosine 5′-(α,β-methylene)diphosphate] |  |  |  |  |  | increase of T-cell proliferation
